Reference: patent US12343396B2, “Ultrasound mediated delivery of drugs” (EXACT THERAPEUTICS AS, priority 2013, dated 2025)
≈ marks a conversion by molar mass, not a printed value. Like-named read-outs stand apart in the source and are kept apart here.

How the values were obtained:
[1] = cited from earlier work; for vapour pressure (v.p.): at 20° C.; for Log wsol (water solubility): logarithm of Molar solubility
[2] = Microscopy scoring of spontaneously and US activated bubbles; format: physicochemical; design: key: Score 0 = no or very limited; Score 1 = medium and; Score 2 = high; conditions: oil as C2 microdroplet phase mixed with C1, 37° C.; for Spont. Act. (amount of spontaneously activated bubbles): bubbles >~15 μm; for US Act. (amount of US activated bubbles): insonated 5 s, nominal MI 0.8, 2.25 MHz
Method: 641 mg distearoylphosphateidylcholine (DSPC) and 73 mg 1,2-distearoyl-3-(trimethylammonio) propane chloride (DSTAP) were weighed into a 250 mL round bottom flask and 50 ml chloroform was added. The sample was heated under hot tap water until a clear solution was obtained. The chloroform was removed by evaporation to dryness on a rotary evaporator at 350 mm Hg and 40° C., followed by further drying at 50 mm Hg in desiccator over night. Thereafter, 143 mL water was added and the flask again placed on a rotary evaporator and the lipids were rehydrated by full rotational speed and 80° C. water bath temperature for 25 minutes. The samples were placed in refrigerator over night. The lipid dispersion was transferred to a suitable vial and stored in refrigerator until use.
Emulsions were prepared by transferring aliquots of 1 mL of the cold lipid dispersion to 2 mL chromatography vials. To each of seven vials was added 100 μL of the fluorocarbon oils as detailed in Table 11. The chromatography vials were shaken on a CapMix (Espe, GmbH) for 75 seconds. The vials were immediately cooled in ice, pooled and kept cold until use. Coulter counter analysis was performed to determine the volume concentration of the microdroplets and the emulsions were then diluted with water to 10 μl/mL disperse phase.
C1 (as detailed in E1-2) was reconstituted in 2 mL of water and mixed together with the C2 samples prepared in a 10 ml tube to a ratio of 10:1 and shaken carefully by hand. The mixture was then diluted with 7 mL water. The samples were evaluated for spontaneously activated and US activated bubbles by microscopy in manual version of the methodology described in E1-4. One mL of this solution was transferred to a microscope cell where the temperature was stabilised to 37° C. after 2 minutes. The cell was set up so that US sonication, using an ATL 3-2 transducer with a center frequency of 2.25 MHZ, could be applied to the sample. At 200× magnification the entire cell area was scanned and the content of large (>˜15 μm), spontaneously activated bubbles was semi quantitatively assessed by visual inspection. For each sample, a score in the range of 0 to 2 was given, where 0 designate “no or very few large phase shift bubbles observed”, 1 designate “medium number of large phase shift bubbles observed” and 2 designate “large number of large phase shift bubbles observed”. The sample was then insonated for 5 s at a nominal MI of 0.8 and the content of large, US activated bubbles were counted and scored in the same manner. The results from this study is detailed in Table 11 together with the physicochemical characteristics of the compounds investigated.

[3] = Experimental miscibility and solubility in solvents; conditions: for solubility: organic solvent or mixture; for Miscibility in tCIMe: solvents
Method: As a starting-point for the study on drug loading, a theoretical evaluation of solubility of different solutes (drugs and chromophores for optical imaging) in pFMCP and a range of other oil components was performed. This evaluation was performed using a state-of-the-art software for assessment of solvent-solute compatibility; Hansen solubility parameters, HSPiP v.4 (Steven Abbott TCNF Ltd.). The HSPIP analysis calculates three basic properties relating to compatibility between substances; Polarity, Dispersion and Hydrogen binding and a distance in this three dimensional space between e.g. a solvent and a solute; the Hansen distance (Hd). The closer the solvent and solute are in this space, the (relatively) better the solubility of the solute in the solvent. […] The miscibility between the solvent and the solubility of the solutes in one of the solvents were experimentally determined.
In addition, a 1:1:2 mixture of said three solvents loaded with Ptx was explored. […] C2 with a 1:1:1 mixture of these components was manufactured as detailed below.

| Compound | vapour pressure (v.p.) [1] [torr] | Log wsol (water solubility) [1] | Spont. Act. (amount of spontaneously activated bubbles) [2] | US Act. (amount of US activated bubbles) [2] | other results |
| --- | --- | --- | --- | --- | --- |
| Methyl-1,1,2,2-tetrafluoroethyl ether | 842.4 | −1.4 | 2 | 0 | – |
| CCCCCCCCCCCCCCCCCCN1C(=CC=CC=CC=CC2=[N+](CCCCCCCCCCCCCCCCCC)c3ccccc3C2(C)C)C(C)(C)c2ccccc21.[I-] [DiR] | – | – | – | – | solubility in solvent mixture ([3]; 1:1:1 mixture of pFMCP, ClrFPr and pFMCP): > 10 mg/mL; Solubility in tCIMe ([3]; target molecules): ~50 mg/mL |
| CCN(CC)c1ccc2nc3c4ccccc4c(=O)cc-3oc2c1 [Nile Red] | – | – | – | – | solubility ([3]; Solubility in tCIMe): ~50 mg/mL (≈ 157 mM); solubility ([3]; solubility in solvent mixture): > 5 mg/mL |
| ClCCl [dCIMe, dichloromethane] | – | – | – | – | Log wsol (water solubility) ([1]; solvents): −0.8; miscibility in pFMCP [3]: ~10%; Miscibility in tCIMe [3]: 100% |
| CC(=O)O[C@@]12CO[C@@H]1C[C@H](O)[C@@]1(C)C(=O)[C@H](O)C3=C(C)[C@@H](OC(=O)[C@H](O)[C@@H](NC(=O)OC(C)(C)C)c4ccccc4)C[C@@](O)([C@@H](OC(=O)c4ccccc4)[C@H]21)C3(C)C [Docetaxel] | – | – | – | – | solubility ([3]; Solubility in tCIMe): ~20 mg/mL (≈ 24.8 mM) |
| FC(F)C(F)(F)C(F)(F)C(F)(F)C(F)(F)C(F)(F)F [1H-perfluorohexane] | 238.6 | −5.3 | 1 | 1 | – |
| C=CC(F)(F)C(F)(F)C(F)(F)C(F)(F)F [1H, 1H,2H-perfluoro-1-hexene] | 353.1 | −4.6 | 1 | 1 | – |
| 2,2,3,3,3-Pentafluoropropyl methyl | 559.6 | −2.0 | 1 | 0 | – |
| dichlorodifluoroethane [dCldFEt] | – | – | – | – | miscibility in pFMCP, dClMe and tClMe [3]: completely miscible |
| Perfluorodimethylcyclobutane | 579 | −5.7 | 0 | 1 | – |
| CC(=O)O[C@H]1C(=O)[C@@]2(C)[C@H]([C@H](OC(=O)c3ccccc3)[C@]3(O)C[C@H](OC(=O)[C@H](O)[C@@H](NC(=O)c4ccccc4)c4ccccc4)C(C)=C1C3(C)C)[C@]1(OC(C)=O)CO[C@@H]1C[C@@H]2O [Paclitaxel] | – | – | – | – | solubility in solvent mixture [3]: > 50 mg/mL; solubility ([3]; Solubility in tCIMe): ~350 mg/mL (≈ 410 mM); solubility ([3]; solubility in solvent mixture): > 25 mg/mL |
| FC(C(F)C(F)(F)C(F)(F)F)C(F)(F)F (stereo not shown) [2H,3H-perfluoropentane] | 431.8 | −3.2 | 1 | 0 | – |
| FC(F)(F)C1(F)C(F)(F)C(F)(F)C(F)(F)C1(F)F [pFMCP, perfluoromethyl-cyclopentane] | – | – | 0 | 1 | Miscibility in tCIMe [3]: ~10% |
| chlorotrifluoropropane [CltFPr] | – | – | – | – | Log wsol (water solubility) ([1]; solvents): −2.4; miscibility in pFMCP, dClMe and tClMe [3]: completely miscible; Miscibility in tCIMe [3]: 100% |
| CN(C)C/C=C/C(=O)Nc1cc2c(Nc3ccc(F)c(Cl)c3)ncnc2cc1O[C@H]1CCOC1 [Afatinib] | – | – | – | – | solubility ([3]; Solubility in tCIMe): ~100 mg/mL (≈ 206 mM) |
| FC(F)(F)C(F)(F)C(F)(F)C(F)(F)C(F)(F)C(F)(F)C(F)(F)F [Perfluoroheptane] | – | – | 0 | 2 | – |
| CCS(=O)(=O)Nc1ccc2c(c1)/C(=C(/Nc1ccc(CN3CCCCC3)cc1)c1ccccc1)C(=O)N2 [Hesperadin] | – | – | – | – | solubility ([3]; Solubility in tCIMe): ~7.5 mg/mL (≈ 14.5 mM) |
| COc1cccc2c1C(=O)c1c(O)c3c(c(O)c1C2=O)C[C@@](O)(C(=O)CO)C[C@@H]3O[C@H]1C[C@H](N)[C@H](O)[C@H](C)O1 [Doxorubicin] | – | – | – | – | solubility ([3]; trichloromethane (tClMe), Solubility in tCIMe, target molecules): ~1 mg/mL (≈ 1.84 mM) |
| FC(F)(F)C(F)(F)C(F)(F)C(F)(F)C(F)(F)C(F)(F)F [Perfluorohexane] | 359.2 | −6.7 | 0 | 1 | – |
| 1,1,2,3,3,3-Hexafluoropropyl methyl | 418.8 | −2.5 | 2 | 0 | – |
